Several values for one entry are separate records, joined by “and”; a condition that tells them apart may be missing. Identical values can stand only once. Like-named read-outs stand apart in the source and are kept apart here.
Assays:
[1] = system: C57BL/6 responder splenocytes from WT mice; assay: One-way mixed lymphocyte reaction (MLR), [3H]-thymidine incorporation, wild-type responder splenocytes; format: cell-based, mouse; settings: for Inhibition of the MLR: WT splenocytes, agonist 16 and 32 μM, 3 h
Procedure: The MLR assay is a common method used to evaluate the cellular immune responses from two different individuals or animals and is considered to be an in vitro correlate of skin and organ transplant rejection. Lymphocytes from two different populations can be incubated together in which the T cells recognize the foreign cells from the other strain, become activated, proliferate and take up tritiated thymidine ([^3H]-thymidine). Results from this assay (Examples 1, 2 and 4) are expressed as a Suppression Index (SI), where untreated spleen cells are given a value of 1.00 (100%), and responses of cultures receiving treatment with cannabinoids are calculated as: […]
All SI data were transformed to normalized ranks to accommodate non-normality of the data. ANOVA was used to test for significant differences between groups.
The aim of the next series of experiments was to test the hypothesis that suppression of proliferation in the MLR is a CB2 receptor-mediated function.

MLR culture cells = assay: Cell viability in MLR cultures by flow cytometry (LIVE/DEAD stain); format: cell-based, mouse; settings: parallel MLR cultures
Procedure: Lastly, cultures were run in parallel with each experimental MLR and tested by flow cytometry to assess viability using LIVE/DEAD® Fixable Dead Cell Stain Kit (Molecular Probes, Inc.; Eugene, Oreg.). Cells (1×10^6) from the culture were resuspended in 1 ml FCM Staining Buffer and incubated for 30 min at room temperature with 1 μl dead cell stain. Cells were washed twice and resuspended in FCM staining buffer and analyzed using an LSRII (BD Biosciences) flow cytometer, and the data were analyzed using FACSDiva™ software (BD Biosciences).

[2] = system: CD3+ cells (T cells) and CD11b+ cells; format: cell-based, mouse; settings: 1-32 μM, 3 hours, fractions added back
CD3+ T-cell population = assay: mRNA expression (microarray/qPCR) in CD3+ T-cells from the MLR; format: cell-based, mouse; settings: 32 μM/ml, 18 hours, vs vehicle
Procedure: This experiment was carried out to screen for molecules that are modulated by exposure of mouse spleen cells to the CB2 receptor agonist (FIG. 6). The experiment used a commercial microarray (Qiagen) that tests the levels of 89 different mRNAs. Spleen cells were placed in culture to carry out a standard Mixed Lymphocyte Reaction (MLR) assay. Experimental wells received 32 μM/ml of the selective CB2 receptor agonist, O-1966, and control wells received vehicle (0.4% ethanol). […] The decrease in CD40L and Cyclin D3 mRNA was significant because CD40L is an activation molecule for T-cells, and Cyclin D3 is a molecule involved in cell division. T-cell activation and division are decreased after exposure to the selective CB2 receptor agonist.

IL-10 release in the MLR = assay: IL-10 release in the MLR; format: cell-based, mouse; settings: 32 μM, supernatants after 24 hours
Procedure: An MLR assay was performed in which experimental wells received 32 μM/ml of O-1966 and control wells received vehicle (FIGS. 7 and 9). Supernatants were collected after 24 hours. […] IL-10 is an immunosuppressive cytokine, so its rise induced by the CB2 receptor agonist provides a mechanism of action for the cannabinoid in suppressing the MLR. In a separate MLR some wells received 1.6 μg/ml of anti-IL-10 antibody. Wells that received no antibody and 32 μM 0-1966 had 90% suppression of proliferation compared to untreated cells. Cells that were treated with anti-IL-10 antibody and 32 μM O-1966 had 43% suppression of proliferation compared to wells that received anti-IL-10 antibody only.

Tregs = Tregs (Foxp3+ CD4+) in the MLR by flow cytometry; format: cell-based, mouse; settings: 48 hours
Procedure: An MLR assay was performed in which experimental wells received 32 μM/ml of O-1966 and control wells received vehicle (FIG. 8). At 48 hours, cells were harvested and stained for expression of Foxp3 and CD4 (Cells that are double positive for these two markers are considered Tregs). Cells were analyzed for marker expression by flow cytometry. Wells that received no treatment had 2.1%+/−0.14 Tregs compared to wells that were treated with 32 μM O-1966 which had 4.3%+/−0.27 Tregs. These differences were statistically significant, as 20,000 cells were counted in each group. Tregs are a relatively newly recognized subset of T-cells that suppress T-cell immune responses. Thus, an increase their number induced by the CB2 receptor agonist provides a second mechanism by which the cannabinoid is altering T-cell responsiveness in the MLR assay.
An MLR was performed in which some wells received 1.6 μg/ml of anti-IL-10 antibody (FIG. 10). Cells were harvested at 48 hours and stained as described under #3 above for Tregs. Cells that received 32 μM O-1966 and no anti-IL-10 antibody had 4.3%+/−0.28 Tregs. Wells that received only anti-IL-10 antibody and no O-1966, had 1.7%+/−0.16 Tregs. Wells that received anti-IL-10 antibody in addition to 32 μM O-1966 had 2.9%+/−0.25 Tregs.

[3] = system: C57Bl/6 mice with skin grafts from C3HeB/FeJ mice; assay: Skin graft rejection in mice; format: in vivo, mouse; settings: 5 mg/kg intraperitoneal every other day for 14 days
Procedure: Groups of C57Bl/6 mice received skin grafts from C3HeB/FeJ mice that are histoincompatible (FIG. 11). Starting one hour before grafting mice were treated by intraperitoneal injection with either 5 mg/kg of the CB2 receptor agonist, O-1966, or vehicle. (Volumes were based on weight. but were usually approximately 0.2 ml.) every other day for 14 days, and monitored for graft rejection. Mice that received O-1966 treatment had viable grafts 2.7 days longer than vehicle treated mice, which was statistically significant.

[4] = system: splenocytes from skin graft recipient mice; assay: Ex vivo MLR of splenocytes from treated skin graft recipient mice; parameters: species or system mouse; settings: 5 mg/kg every other day 14 days; spleens day 14; 48 hr in culture
Procedure: Splenocytes from O-1966 treated skin graft recipient mice have decreased proliferation in an ex vivo MLR. (FIG. 12). Groups of mice received skin grafts and were treated with either 5 mg/kg O-1966 or vehicle every other day for 14 days. Spleens were removed on day 14 and placed in an MLR assay. The cells were restimulated in vitro with splenocytes from an incompatible mouse strain, but they received no additional treatment with a cannabinoid in vitro.

splenic Tregs = assay: Splenic Tregs of treated skin graft recipient mice by flow cytometry; format: in vivo, mouse
Procedure: O-1966 treated mice that received skin grafts have an increased percentage of splenic Tregs. (FIGS. 13 and 14): Spleen cells taken from the animals described in C1 above were harvested from animals, and a sample was immediately analyzed by flow cytometry. Another sample was placed in culture for 48 hours. […] Cells that were harvested after 48 hours in the MLR had 4.75% Tregs in the vehicle treated mice and 9.7% Tregs in the O-1966 treated mice.

[5] = Spleen weight of treated skin graft recipient mice; format: in vivo, mouse; settings: Day 14, 5 mg/kg every other day
Source text: Spleens were removed on Day 14 and weighed. Spleens from vehicle treated mice were 0.093+/−0.01 grams and spleens from O-1966 mice were 0.077+/−0.006 grams. Spleens of untreated mice average 0.072+/−0.009 grams (historical data). The average spleen weight index ([spleen weight/body weight]×100) was 0.46% in vehicle treated mice and 0.38% in O-1966 treated mice.

[6] = system: IL-2 release from splenocytes from CB2R-/- KO mice; assay: IL-2 release in MLR supernatants by ELISA, CB2R-/- KO splenocytes; settings: supernatants at 24 hours
[7] = system: C57BL/6 responder splenocytes from WT mice; settings: added to unfractionated murine spleen cells; previously shown by the inventors; cited from earlier work
mouse splenocytes = settings: primary and secondary in vitro assays; earlier work of the inventors; cited from earlier work

Molecule: CCCn1c(C)c(C(=O)c2cccc3ccccc23)c2ccccc21 [JWH-015, reference compound]
- Inhibition of the MLR [1]: markedly inhibited the MLR

Molecule: CCCCCCC(C)(C)c1cc(OC)c(C2(O)CCCC(C)C2)c(OC)c1 (centres unmarked) [O-1966, 1-{4-(1,1-Dimeyhyl-heptyl)-2,6-dimethoxy-phenyl}-3-methyl-cyclohexanol]
- Suppression of proliferation ([1]; 32 μM plus 1.6 μg/ml anti-IL-10 antibody, compared to antibody only): 43%
- Suppression of proliferation ([1]; 32 μM, no antibody, compared to untreated cells): 90%
- Inhibition of the MLR [1]: markedly inhibited the MLR
- Effect on cell death (live versus dead cells) (MLR culture cells): did not affect cell death
- SI values, CD3+ treated versus CD11b+ treated fractions [2]: selectively reduced the SI values for cultures in which the CD3^+ cells were treated
- CD40L mRNA expression (CD3+ T-cell population): −4.60 fold
- Cyclin D3 mRNA expression (CD3+ T-cell population): −4.10 fold
- IL-10 mRNA expression (CD3+ T-cell population): 4.74 fold
- Sla2 mRNA expression (CD3+ T-cell population): 4.75 fold
- Socs5 mRNA expression (CD3+ T-cell population): 4.37 fold
- IL-10 release in the MLR (IL-10 release in the MLR): 96.75 pg/mL
- Increase of IL-10 release in the MLR (IL-10 release in the MLR): 2.46 fold
- Tregs (Foxp3+ CD4+) (Tregs; 32 μM O-1966 plus 1.6 μg/ml anti-IL-10 antibody): 2.9%+/−0.25
- Tregs (Foxp3+ CD4+) (Tregs; 32 μM, no anti-IL-10 antibody): 4.3%+/−0.27 and 4.3%+/−0.28
- Viable grafts longer than vehicle treated mice [3]: 2.7 days
- Decreased proliferation in ex vivo MLR compared to vehicle treated mice [4]: 50%
- Tregs (CD4+, Foxp3+) of the CD4 cells (splenic Tregs; analyzed immediately after sacrifice, day 14, 5 mg/kg): 32.2%
- Tregs after 48 hours in the MLR (splenic Tregs; ex vivo MLR 48 hours, 5 mg/kg in vivo): 9.7%
- Average spleen weight index ([spleen weight/body weight]×100) [5]: 0.38%
- Spleen weight [5]: 0.077+/−0.006 grams
- Inhibition of IL-2 release [6]: without effect

Molecule: CCCCCc1cc(O)c2c(c1)OC(C)(C)[C@@H]1CCC(C)=C[C@@H]21 [THC (Marinol), Δ^9-tetrahydrocannabinol]
- Inhibition of the MLR [7]: inhibit the MLR
- Immunosuppression in plaque-formation cell assays (mouse splenocytes): induce dose-related immunosuppression

Molecule: CCCCC/C=C\C/C=C\C/C=C\C/C=C\CCCC(=O)NCCO [anandamide, arachidonoylethanolamide]
- Immunosuppression in plaque-formation cell assays (mouse splenocytes): induce dose-related immunosuppression

Molecule: SR144528 [reference compound]
- Block of suppression of the MLR by JWH-015 and O-1966 ([1]; antagonist 32-320 μM added 2 h before agonist (16 and 32 μM)): blocked suppression
